Assays:
[1] = molecular target: T1, human TLR8 (Homo sapiens, UniProt Q9NR97); experiment: TLR8 inhibition reporter assay (HEK-Blue cells, SEAP reporter); assay type: cell-based; conditions: HEK-Blue cells overexpressing human TLR8, stimulated with R848 15.9 μM, 22 hour incubation
T1 construct: host or cells: HEK-Blue cells
T1 sequence (Q9NR97 27-1041): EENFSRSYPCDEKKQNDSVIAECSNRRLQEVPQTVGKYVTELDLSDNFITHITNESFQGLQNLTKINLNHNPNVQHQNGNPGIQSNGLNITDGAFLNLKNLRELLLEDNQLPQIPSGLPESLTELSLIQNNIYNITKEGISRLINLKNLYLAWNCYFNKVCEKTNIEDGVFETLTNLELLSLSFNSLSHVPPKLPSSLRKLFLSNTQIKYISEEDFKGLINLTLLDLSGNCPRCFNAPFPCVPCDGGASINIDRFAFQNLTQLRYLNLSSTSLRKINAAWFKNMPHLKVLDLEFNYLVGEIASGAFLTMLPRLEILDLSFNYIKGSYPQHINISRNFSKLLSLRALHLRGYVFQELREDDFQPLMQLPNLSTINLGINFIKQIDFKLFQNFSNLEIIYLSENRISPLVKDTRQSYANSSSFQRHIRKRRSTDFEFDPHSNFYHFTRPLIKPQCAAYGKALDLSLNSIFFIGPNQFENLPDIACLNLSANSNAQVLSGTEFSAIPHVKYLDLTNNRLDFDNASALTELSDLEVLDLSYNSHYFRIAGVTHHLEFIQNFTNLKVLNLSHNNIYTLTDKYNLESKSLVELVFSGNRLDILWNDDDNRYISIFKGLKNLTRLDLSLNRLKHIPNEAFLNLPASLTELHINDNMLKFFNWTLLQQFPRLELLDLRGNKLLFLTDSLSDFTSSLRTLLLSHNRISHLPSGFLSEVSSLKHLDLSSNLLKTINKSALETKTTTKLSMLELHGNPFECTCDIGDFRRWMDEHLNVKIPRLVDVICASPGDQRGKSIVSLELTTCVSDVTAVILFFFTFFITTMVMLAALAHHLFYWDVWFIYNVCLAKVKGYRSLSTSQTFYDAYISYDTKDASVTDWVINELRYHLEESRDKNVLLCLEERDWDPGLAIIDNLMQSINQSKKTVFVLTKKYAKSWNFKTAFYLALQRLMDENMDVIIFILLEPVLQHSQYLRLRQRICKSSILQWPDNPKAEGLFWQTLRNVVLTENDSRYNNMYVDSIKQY
Procedure, shortened: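 Screening used HEK-Blue cells overexpressing one human TLR (7, 8 or 9) and an IFN-β minimal promoter–NF-κB/AP-1 SEAP construct. Stimulation lasted 22 h at 37 °C with receptor-specific agonist: gardiquimod, R848 or ODN2006 at 7.5 μM, 15.9 μM and 5 nM.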

[2] = molecular target: T2, human TLR9 (Homo sapiens, UniProt Q9NR96); experiment: TLR9 inhibition reporter assay (HEK-Blue cells, SEAP reporter); assay type: cell-based; conditions: HEK-Blue cells overexpressing human TLR9, stimulated with ODN2006 5 nM, 22 hour incubation
T2 construct: host or cells: HEK-Blue cells
T2 sequence (Q9NR96 26-1032): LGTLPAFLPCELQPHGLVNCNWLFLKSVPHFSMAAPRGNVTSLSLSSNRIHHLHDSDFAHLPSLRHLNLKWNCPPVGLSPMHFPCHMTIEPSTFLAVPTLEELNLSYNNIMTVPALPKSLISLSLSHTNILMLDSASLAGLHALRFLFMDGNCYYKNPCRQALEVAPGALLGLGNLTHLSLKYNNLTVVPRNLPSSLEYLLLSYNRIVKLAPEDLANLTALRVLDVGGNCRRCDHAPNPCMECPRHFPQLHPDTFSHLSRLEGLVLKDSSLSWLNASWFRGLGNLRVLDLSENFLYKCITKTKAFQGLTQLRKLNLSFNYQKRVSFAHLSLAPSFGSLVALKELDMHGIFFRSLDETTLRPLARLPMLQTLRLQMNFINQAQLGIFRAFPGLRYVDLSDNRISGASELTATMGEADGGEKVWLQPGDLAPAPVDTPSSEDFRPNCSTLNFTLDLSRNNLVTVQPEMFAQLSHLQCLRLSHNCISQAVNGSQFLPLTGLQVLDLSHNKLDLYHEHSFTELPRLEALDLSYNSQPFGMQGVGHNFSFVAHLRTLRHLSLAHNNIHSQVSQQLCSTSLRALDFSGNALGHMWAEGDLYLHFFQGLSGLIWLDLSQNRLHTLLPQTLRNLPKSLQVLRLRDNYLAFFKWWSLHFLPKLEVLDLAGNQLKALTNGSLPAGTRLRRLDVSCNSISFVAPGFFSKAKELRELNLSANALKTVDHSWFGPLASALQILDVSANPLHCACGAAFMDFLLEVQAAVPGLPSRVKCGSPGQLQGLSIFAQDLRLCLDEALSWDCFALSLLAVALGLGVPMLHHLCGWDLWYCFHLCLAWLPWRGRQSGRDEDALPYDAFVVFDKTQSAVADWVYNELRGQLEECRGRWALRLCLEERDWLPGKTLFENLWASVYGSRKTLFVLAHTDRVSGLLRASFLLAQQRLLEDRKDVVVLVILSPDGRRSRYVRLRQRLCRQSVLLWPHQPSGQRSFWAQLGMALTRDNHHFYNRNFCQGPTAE
Procedure, shortened: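 HEK-Blue cells overexpressing human TLR9 (25,000 cells/well), NF-κB/AP-1-driven SEAP reporter. Compounds at 0.05 nM–50 μM final, 22 h at 37 °C, 5% CO2 with agonist. SEAP detected with HEK-Blue Detection medium; % inhibition versus agonist plus DMSO and known-inhibitor wells.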

| IC50 [1] [nM] | IC50 [2] [nM] | Compound |
| --- | --- | --- |
| 5200 | 111 | CCOC(=O)N1CCC(N2CCC(c3cc4c(cn3)cc(-c3ccc(OC)c(OC)c3)n4C)CC2)CC1 [Example 7, Ethyl 4-(2-(3,4-dimethoxyphenyl)-1-methyl-1H-pyrrolo[3,2-c]pyridin-6-yl)-[1,4′-bipiperidine]-1′-carboxylate] |
| 25900 | 58 | COc1ccc(-c2cc3cnc(C4CCN(Cc5ccc(C)nc5)CC4)cc3n2C)cc1OC [Example 8, 2-(3,4-Dimethoxyphenyl)-1-methyl-6-(1-((6-methylpyridin-3-yl)methyl)piperidin-4-yl)-1H-pyrrolo[3,2-c]pyridine] |
| > 50000 | 226 | Cc1nc(-c2cc(F)c(N3CCN(C4CCOCC4)CC3)c(F)c2)cc2c1cc(-c1ccc(S(C)(=O)=O)cc1)n2C [Example 89, 6-(3,5-difluoro-4-(4-(tetrahydro-2H-pyran-4-yl)piperazin-1-yl)phenyl)-1,4-dimethyl-2-(4-(methylsulfonyl)phenyl)-1H-pyrrolo[3,2-c]pyridine] |
| 22100 | 141 | Cc1nc(-c2ccc(C3(O)CCN(CC(C)C)CC3)c(F)c2)cc2c1cc(-c1ccc(S(C)(=O)=O)cc1)n2C [Example 90, 4-(4-(1,4-dimethyl-2-(4-(methylsulfonyl)phenyl)-1H-pyrrolo[3,2-c]pyridin-6-yl)-2-fluorophenyl)-1-isobutylpiperidin-4-ol] |
| 1300 | 735 | Cc1nc(-c2ccc(C3(O)CC4CCC(C3)N4CC(C)C)c(F)c2)cc2c1cc(-c1ccc(S(C)(=O)=O)cc1)n2C [Example 91, (1R,3r,5S)-3-(4-(1,4-dimethyl-2-(4-(methylsulfonyl)phenyl)-1H-pyrrolo[3,2-c]pyridin-6-yl)-2-fluorophenyl)-8-isobutyl-8-azabicyclo[3.2.1]octan-3-ol] |
| > 50000 | 109 | COCCN1CCC(O)(c2ccc(-c3cc4c(cc(-c5ccc(S(C)(=O)=O)cc5)n4C)c(C)n3)cc2F)CC1 [Example 92, 4-(4-(1,4-dimethyl-2-(4-(methylsulfonyl)phenyl)-1H-pyrrolo[3,2-c]pyridin-6-yl)-2-fluorophenyl)-1-(2-methoxyethyl)piperidin-4-ol] |
| > 50000 | 1430 | Cc1nc(-c2ccc(C3(O)CCN(C4CC4)CC3)c(F)c2)cc2c1cc(-c1ccc(S(C)(=O)=O)cc1)n2C [Example 93, 1-cyclopropyl-4-(4-(1,4-dimethyl-2-(4-(methylsulfonyl)phenyl)-1H-pyrrolo[3,2-c]pyridin-6-yl)-2-fluorophenyl)piperidin-4-ol] |
| 2500 | 143 | Cc1nc(-c2cc(F)c(C3(O)CCN(CC(C)C)CC3)cc2F)cc2c1cc(-c1ccc(S(C)(=O)=O)cc1)n2C [Example 94, 4-(4-(1,4-dimethyl-2-(4-(methylsulfonyl)phenyl)-1H-pyrrolo[3,2-c]pyridin-6-yl)-2,5-difluorophenyl)-1-isobutylpiperidin-4-ol] |
| 2700 | 537 | COCCN1CCC(O)(c2cc(F)c(-c3cc4c(cc(-c5ccc(S(C)(=O)=O)cc5)n4C)c(C)n3)cc2F)CC1 [Example 95, 4-(4-(1,4-dimethyl-2-(4-(methylsulfonyl)phenyl)-1H-pyrrolo[3,2-c]pyridin-6-yl)-2,5-difluorophenyl)-1-(2-methoxyethyl)piperidin-4-ol] |
| 4100 | 162 | Cc1nc(-c2cc(F)c(C3(O)CCN(C4CC4)CC3)cc2F)cc2c1cc(-c1ccc(S(C)(=O)=O)cc1)n2C [Example 96, 1-cyclopropyl-4-(4-(1,4-dimethyl-2-(4-(methylsulfonyl)phenyl)-1H-pyrrolo[3,2-c]pyridin-6-yl)-2,5-difluorophenyl)piperidin-4-ol] |
| 5300 | 202 | Cc1nc(-c2cc(F)c(N3CCN4CCCC4C3)cc2F)cc2c1cc(-c1ccc(S(C)(=O)=O)cc1)n2C (stereo not drawn) [Example 97, 6-(2,5-difluoro-4-(hexahydropyrrolo[1,2-a]pyrazin-2(1H)-yl)phenyl)-1,4-dimethyl-2-(4-(methylsulfonyl)phenyl)-1H-pyrrolo[3,2-c]pyridine] |
| > 50000 | 212 | Cc1nc(-c2cc(F)c(N3CCN4CCCC4C3)c(F)c2)cc2c1cc(-c1ccc(S(C)(=O)=O)cc1)n2C (stereo not drawn) [Example 98, 6-(3,5-difluoro-4-(hexahydropyrrolo[1,2-a]pyrazin-2(1H)-yl)phenyl)-1,4-dimethyl-2-(4-(methylsulfonyl)phenyl)-1H-pyrrolo[3,2-c]pyridine] |

— US12590091B2, “1H-pyrrolo[3,2-C]pyridine and 1H-pyrrolo[2,3-C]pyridine derivatives as TLR9 inhibitors for the treatment of fibrosis” (BRISTOL-MYERS SQUIBB COMPANY, priority 2020, dated 2026)
